Test results published in ChEMBL document CHEMBL5303573, “Mapping human microbiome drug metabolism by gut bacteria and their genes” (Nature, 2019).

Assays:
[1] = The drug is tested on Bifidobacterium longum subsp. Infantis strain: CCUG52486 for biotransformation. The drug concentrations were measured before and after a 12-h incubation by liquid-chromatography-coupled mass spectrometry (LC–MS); settings: 2 µM
[2] = The drug is tested on Bifidobacterium ruminantium strain: fecal isolate for biotransformation. The drug concentrations were measured before and after a 12-h incubation by liquid-chromatography-coupled mass spectrometry (LC–MS); settings: 2 µM
[3] = The drug is tested on Collinsella aerofaciens strain: ATCC25986 for biotransformation. The drug concentrations were measured before and after a 12-h incubation by liquid-chromatography-coupled mass spectrometry (LC–MS); settings: 2 µM
[4] = The drug is tested on Collinsella intestinalis strain: DSM13280 for biotransformation. The drug concentrations were measured before and after a 12-h incubation by liquid-chromatography-coupled mass spectrometry (LC–MS); settings: 2 µM
[5] = The drug is tested on Bacteroides dorei strain: DSM17855 for biotransformation. The drug concentrations were measured before and after a 12-h incubation by liquid-chromatography-coupled mass spectrometry (LC–MS); settings: phocaeicola dorei, 2 µM
[6] = The drug is tested on Bacteroides pectinophilus strain: ATCC43243 for biotransformation. The drug concentrations were measured before and after a 12-h incubation by liquid-chromatography-coupled mass spectrometry (LC–MS); settings: 2 µM
[7] = The drug is tested on Clostridium asparagiforme strain: DSM15981 for biotransformation. The drug concentrations were measured before and after a 12-h incubation by liquid-chromatography-coupled mass spectrometry (LC–MS); assay type: ADME; set-up: dose 2 uM, timepoint 0 vs 12 hours; settings: enterocloster asparagiformis, 2 µM
[8] = The drug is tested on Clostridium sp. strain: fecal isolate for biotransformation. The drug concentrations were measured before and after a 12-h incubation by liquid-chromatography-coupled mass spectrometry (LC–MS); settings: 2 µM
[9] = The drug is tested on Clostridium ramosum strain: DSM1402 for biotransformation. The drug concentrations were measured before and after a 12-h incubation by liquid-chromatography-coupled mass spectrometry (LC–MS); settings: thomasclavelia ramosa, 2 µM
[10] = The drug is tested on Clostridium sporogenes strain: ATCC15579 for biotransformation. The drug concentrations were measured before and after a 12-h incubation by liquid-chromatography-coupled mass spectrometry (LC–MS); settings: 2 µM
[11] = The drug is tested on Coprococcus comes strain: ATCC27758 for biotransformation. The drug concentrations were measured before and after a 12-h incubation by liquid-chromatography-coupled mass spectrometry (LC–MS); assay type: ADME; set-up: dose 2 uM, timepoint 0 vs 12 hours; settings: 2 µM
[12] = The drug is tested on Eubacterium rectale strain: ATCC33656 for biotransformation. The drug concentrations were measured before and after a 12-h incubation by liquid-chromatography-coupled mass spectrometry (LC–MS); settings: agathobacter rectalis, 2 µM
[13] = The drug is tested on Escherichia coli strain: BW25113 for biotransformation. The drug concentrations were measured before and after a 12-h incubation by liquid-chromatography-coupled mass spectrometry (LC–MS); settings: 2 µM
[14] = The drug is tested on Providencia stuartii strain: ATCC25827 for biotransformation. The drug concentrations were measured before and after a 12-h incubation by liquid-chromatography-coupled mass spectrometry (LC–MS); settings: 2 µM
[15] = bacteroides eggerthii, 12 h, 2 µM
Description: The drug is tested on Bacteroides eggerthii strain: DSM20697 for biotransformation. The drug concentrations were measured before and after a 12-h incubation by liquid-chromatography-coupled mass spectrometry (LC–MS)

[16] = bacteroides intestinalis, 12 h, 2 µM
Description: The drug is tested on Bacteroides intestinalis strain: DSM17393 for biotransformation. The drug concentrations were measured before and after a 12-h incubation by liquid-chromatography-coupled mass spectrometry (LC–MS)

[17] = segatella copri, 12 h, 2 µM
Description: The drug is tested on Prevotella copri strain: DSM18205 for biotransformation. The drug concentrations were measured before and after a 12-h incubation by liquid-chromatography-coupled mass spectrometry (LC–MS)

[18] = roseburia intestinalis, 12 h, 2 µM
Description: The drug is tested on Roseburia intestinalis strain: L1-82 for biotransformation. The drug concentrations were measured before and after a 12-h incubation by liquid-chromatography-coupled mass spectrometry (LC–MS)

[19] = bacteroides thetaiotaomicron, 12 h, 2 µM
Description: The drug is tested on Bacteroides thetaiotaomicron strain: 7330 for biotransformation. The drug concentrations were measured before and after a 12-h incubation by liquid-chromatography-coupled mass spectrometry (LC–MS)

NC(=O)N1c2ccccc2CC(=O)c2ccccc21 [OXCARBAZEPINE]
Bacterial Biotransformation [1]: Compound metabolized
Bacterial Biotransformation [2]: Compound metabolized
Bacterial Biotransformation [3]: Compound NOT metabolized
Bacterial Biotransformation [4]: Compound NOT metabolized
Bacterial Biotransformation [5]: Compound metabolized
Bacterial Biotransformation [6]: Compound metabolized
Bacterial Biotransformation [7]: Compound NOT metabolized
Bacterial Biotransformation [8]: Compound NOT metabolized
Bacterial Biotransformation [9]: Compound metabolized
Bacterial Biotransformation [10]: Compound metabolized
Bacterial Biotransformation [11]: Compound NOT metabolized
Bacterial Biotransformation [12]: Compound metabolized
Bacterial Biotransformation [13]: Compound metabolized
Bacterial Biotransformation [14]: Compound metabolized
Bacterial Biotransformation [15]: Compound NOT metabolized
Bacterial Biotransformation [16]: Compound NOT metabolized
Bacterial Biotransformation [17]: Compound NOT metabolized
Bacterial Biotransformation [18]: Compound metabolized

COc1ccccc1N1CCN(CC(O)COc2cccc3ccccc23)CC1 (stereo unspecified) [NAFTOPIDIL]
Bacterial Biotransformation [1]: Compound NOT metabolized
Bacterial Biotransformation [3]: Compound NOT metabolized
Bacterial Biotransformation [4]: Compound NOT metabolized
Bacterial Biotransformation [5]: Compound NOT metabolized
Bacterial Biotransformation [6]: Compound NOT metabolized
Bacterial Biotransformation [7]: Compound NOT metabolized
Bacterial Biotransformation [8]: Compound NOT metabolized
Bacterial Biotransformation [9]: Compound NOT metabolized
Bacterial Biotransformation [10]: Compound NOT metabolized
Bacterial Biotransformation [12]: Compound NOT metabolized
Bacterial Biotransformation [13]: Compound NOT metabolized
Bacterial Biotransformation [14]: Compound NOT metabolized
Bacterial Biotransformation [15]: Compound NOT metabolized
Bacterial Biotransformation [16]: Compound NOT metabolized
Bacterial Biotransformation [19]: Compound NOT metabolized
Bacterial Biotransformation [17]: Compound NOT metabolized
Bacterial Biotransformation [18]: Compound NOT metabolized

CCc1nn(CCCN2CCN(c3cccc(Cl)c3)CC2)c(=O)n1CCOc1ccccc1 [NEFAZODONE]
Bacterial Biotransformation [1]: Compound NOT metabolized
Bacterial Biotransformation [2]: Compound NOT metabolized
Bacterial Biotransformation [3]: Compound NOT metabolized
Bacterial Biotransformation [4]: Compound NOT metabolized
Bacterial Biotransformation [6]: Compound NOT metabolized
Bacterial Biotransformation [7]: Compound NOT metabolized
Bacterial Biotransformation [8]: Compound NOT metabolized
Bacterial Biotransformation [9]: Compound NOT metabolized
Bacterial Biotransformation [10]: Compound NOT metabolized
Bacterial Biotransformation [11]: Compound NOT metabolized
Bacterial Biotransformation [12]: Compound NOT metabolized
Bacterial Biotransformation [13]: Compound NOT metabolized
Bacterial Biotransformation [14]: Compound NOT metabolized
Bacterial Biotransformation [15]: Compound NOT metabolized
Bacterial Biotransformation [16]: Compound NOT metabolized
Bacterial Biotransformation [19]: Compound NOT metabolized
Bacterial Biotransformation [17]: Compound NOT metabolized
Bacterial Biotransformation [18]: Compound NOT metabolized

OC(Cn1cncn1)(Cn1cncn1)c1ccc(F)cc1F [FLUCONAZOLE]
Bacterial Biotransformation [1]: Compound NOT metabolized
Bacterial Biotransformation [2]: Compound metabolized
Bacterial Biotransformation [3]: Compound NOT metabolized
Bacterial Biotransformation [4]: Compound NOT metabolized
Bacterial Biotransformation [5]: Compound metabolized
Bacterial Biotransformation [6]: Compound NOT metabolized
Bacterial Biotransformation [7]: Compound NOT metabolized
Bacterial Biotransformation [8]: Compound metabolized
Bacterial Biotransformation [9]: Compound NOT metabolized
Bacterial Biotransformation [10]: Compound metabolized
Bacterial Biotransformation [13]: Compound NOT metabolized
Bacterial Biotransformation [19]: Compound metabolized
Bacterial Biotransformation [17]: Compound NOT metabolized
